Patent US5948755A, “Cyclosporin compound, its preparation and the pharmaceutical compositions which contain it” (Rhone-Poulenc Rorer S.A., priority 1996, dated 1999)

Tests used:
[1] = at concentrations displaying anti-retrovirus activity
[2] = system: retrovirus (HIV); settings: read-out: average for the active concentrations (IC50); technique of Pauwells et al.; first of the two values printed
[3] = EP 484281 and Eur. J. Immunol., 17, 1359 (1987); cited from earlier work

| Compound | cytotoxic or cytostatic effect [1] | IC50 [2] | immunosuppressing nature [3] |
| --- | --- | --- | --- |
| C/C=C/C[C@@H](C)[C@@H](O)[C@H]1C(=O)N[C@@H](CC)C(=O)N(C)[C@H](SC)C(=O)N(C)[C@@H](CC(C)(C)O)C(=O)N[C@@H](C(C)C)C(=O)N(C)[C@@H](CC(C)C)C(=O)N[C@@H](C)C(=O)N[C@H](C)C(=O)N(C)[C@@H](CC(C)C)C(=O)N(C)[C@@H](CC(C)C)C(=O)N(C)[C@@H](C(C)C)C(=O)N1C [formula (I), [(R)-Methylthio-Sar]^3-[4'-hydroxy-MeLeu]^4-cyclosporin A] | devoid of any cytotoxic or cytostatic effect | 0.07 µM |  |
| [4'-hydroxy-MeLeul]^4 -cyclosporin |  |  | are not immunosuppressants |
